Measurements from article PMC9814205, “Targeting undruggable carbohydrate recognition sites through focused fragment library design” (Communications Chemistry, 2022).
“Also recorded” adds a separate entry of the source.

How the values were obtained:
Langerin and DC-SIGN = details: cited from earlier work
DC-SIGN = details: stated in SI text, method and reference not given; cited from earlier work
DC-SIGN CRD (CD209) = target: T1, DC-SIGN CRD (CD209) (Homo sapiens, UniProt Q9NNX6); experiment: 1H-15N HSQC NMR with 15N DC-SIGN CRD; type: binding
T1 construct: the carbohydrate recognition domain (CRD) of DC-SIGN in ^1H-^15N HSQC/TROSY NMR experiments; made in house
T1 sequence (Q9NNX6 263-378 limits assumed): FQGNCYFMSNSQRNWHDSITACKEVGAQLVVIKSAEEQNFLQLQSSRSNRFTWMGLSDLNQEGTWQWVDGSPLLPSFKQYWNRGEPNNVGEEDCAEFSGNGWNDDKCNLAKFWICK
Protocol: (§1) The ^1H-^15N TROSY pulse sequence trosyf3gpphsi19 with 128 increments and 32 scans per increment was applied for 0.15 mM ^15N LecA and 0.07 mM LecB in HBS/Ca^2+ buffer (20 mM HEPES pH 7.4, 150 mM NaCl, 10 mM CaCl2, 10% D2O and 100 µM sodium trimethylsilylpropanesulfonate (DSS) as internal reference) at 310 K. The ^1H-^15N HSQC pulse sequence hsqcf3gpph19 with 128 increments and 8 scans per increment was applied for 0.1 mM ^15N DC-SIGN and Langerin CRD in HBS/Ca^2+ buffer at 298 K. For screening of 650 non-fluorinated fragments of the general library against ^15N LecA, a mix of 10 compounds at 1 mM each was combined with 0.15 mM ^15N LecA in HBS/Ca^2+ buffer (20 mM HEPES pH 7.4, 150 mM NaCl, 10 mM CaCl2, 10% D2O and 100 µM sodium trimethylsilylpropanesulfonate (DSS) as internal reference, whereas the fragments with the MBP scaffolds were validated separately at 1 mM. Similarly, 9 nonfluorinated fragments from the MBP library were screened against ^15N-labeled DC-SIGN, LecA and LecB. To validate the fragment binding to proteins, we recorded ^1H-^15N HSQC and TROSY NMR of proteins in the presence of DMSO as negative control and 2 mM fragments in HBS/Ca^2+ buffer. Natural ligands were used as positive controls at 1 mM MeGal, MeFuc and 30 mM D-mannose to LecA/LecB and DC-SIGN CRD/Langerin CRD, respectively. Titration experiments with ^15N-labeled DC-SIGN CRD or LecB were recorded in HBS/Ca^2+ buffer with 30 mM CaCl2 and 0.25 to 4–8 mM malonic acid derivatives. The Kd values were calculated according to the one-site-binding model in Origin(Pro) 2020b (OriginLab Corp., USA). Ligand efficiency calculations were done according to Eq. (1) for a temperature of 298 K and 310 K for DC-SIGN CRD and LecB, respectively.1 LE=RTlnKd/HA, with the temperature T [K], the gas constant R [kcal mol^−1 K^−1], and the number of non-hydrogen atoms HA[56].
(§2) All data were processed with NMRpipe[65] and analyzed with CcpNmr analysis. For data analysis, the protein fingerprint of ^15N DC-SIGN (Table S7) or Langerin CRD was assigned as reported previously. The ^1H-^15N TROSY resonances of ^15N LecA and ^15N LecB were indexed with IDs due to a lack of protein backbone resonance assignment (Tables S8-S9). Next, resonance IDs from protein spectra were transferred to the spectra obtained in the presence of compounds in order to compare the changes in chemical shift perturbations for the fast exchange peaks. The changes in chemical shift perturbations (CSPs) were calculated according to Eq. (2):2 △δ=1/2△δH2+α△δN^2 in which δ is the difference in chemical shift (in ppm) and α is an empirical weighting factor of 0.14 for all amino acid backbone resonances. The threshold value was set based on three independent measurements of reference spectra to 0.01 ppm for LecA, LecB, DC-SIGN CRD and Langerin CRD.

DC-SIGN^+ Raji cells = target: T2, DC-SIGN^+ Raji cells (Homo sapiens, UniProt Q9NNX6); experiment: cellFy cell-based assay, FITC-dextran binding by flow cytometry; details: D-mannose positive control
T2 construct: expressed in transfected cells; host or cells: Raji cells (DC-SIGN+)
T2 sequence (Q9NNX6 1-404): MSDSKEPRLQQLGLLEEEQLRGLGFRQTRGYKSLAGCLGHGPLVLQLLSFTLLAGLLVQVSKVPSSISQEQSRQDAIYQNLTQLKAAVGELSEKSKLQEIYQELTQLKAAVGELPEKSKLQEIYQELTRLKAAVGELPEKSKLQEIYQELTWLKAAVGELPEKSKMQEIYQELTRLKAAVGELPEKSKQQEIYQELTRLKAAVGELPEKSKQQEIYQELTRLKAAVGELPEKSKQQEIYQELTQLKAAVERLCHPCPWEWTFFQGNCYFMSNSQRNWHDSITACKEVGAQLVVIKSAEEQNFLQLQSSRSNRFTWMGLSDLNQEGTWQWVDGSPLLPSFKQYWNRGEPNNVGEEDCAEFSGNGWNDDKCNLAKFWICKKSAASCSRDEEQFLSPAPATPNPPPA
Protocol: (§3) The cellFy experiments using Langerin^+ and DC-SIGN^+ Raji cell lines were performed as described before. Briefly, 50k cells were plated in a 96-well plate (clear, round bottom; Greiner Bio-One and mixed with varying concentrations of malonates 58, D-mannose and 0.025 mg mL^−1 FITC-conjugated dextran (500 kDa, Sigma Aldrich) in a final volume of 50 µL following incubation for 30 min on ice. After centrifugation at 500 g for 3 min at 4 °C, the supernatant was discarded. After washing cells were treated with 50 µL 4 % paraformaldehyde (Roti-Histofix, Carl Roth) for 20 min on ice and resuspended in 100 µL fresh culture medium. The fluorescence of cells was measured by flow cytometry (MACSQuant Analyzer 16). Data was analyzed in FlowJo.

Raji cells = experiment: Cytotoxicity observed in cellFy; type: cell-based; details: at low concentrations; up to 10 mM
Protocol: as §3

5FW LecA (PA-IL) = target: T3, 5FW LecA (PA-IL) (Pseudomonas aeruginosa, UniProt Q05097); experiment: PrOF NMR with 5-fluorotryptophan-labeled LecA; type: binding
T3 construct: made in house
T3 sequence (Q05097 2-122): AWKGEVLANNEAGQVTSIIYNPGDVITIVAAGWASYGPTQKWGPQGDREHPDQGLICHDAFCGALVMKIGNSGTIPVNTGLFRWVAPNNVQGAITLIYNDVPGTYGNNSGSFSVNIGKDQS
Protocol: PrOF NMR was performed as reported previously. Briefly, 150 µM 5FW LecA was recorded alone and in the presence of DMSO or 2–4 mM compounds in TBS/Ca^2+ buffer. The difference in chemical shift perturbations of W42 in 5FW LecA free vs bound forms was followed to determine Kd values of compounds. The Kd values were calculated according to the one-site-binding model in Origin(Pro) 2020b (OriginLab Corp., USA) from two or three independent titrations. Ligand efficiency values were calculated according to Eq. (1) for a temperature of 310 K.

LecB (PA-IIL) = target: T4, LecB (PA-IIL) (Pseudomonas aeruginosa, UniProt Q9HYN5); experiment: 1H-15N TROSY NMR with 15N LecB; type: binding
T4 construct: made in house
T4 sequence (Q9HYN5 entry or part of it): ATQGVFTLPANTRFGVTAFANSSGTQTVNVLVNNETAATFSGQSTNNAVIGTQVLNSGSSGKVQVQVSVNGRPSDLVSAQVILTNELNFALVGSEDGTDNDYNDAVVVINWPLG
Protocol: as §1, with “Ligand efficiency calculations were done according to Eq. (1) for a temperature of 298 K and 310 K for DC-SIGN CRD and LecB, respectively.1 LE=RTlnKd/HA, with the temperature T [K], the gas constant R [kcal mol^−1 K^−1], and the number of non-hydrogen atoms HA[56].” left out
All data were processed with NMRpipe[65] and analyzed with CcpNmr analysis. […] The changes in chemical shift perturbations (CSPs) were calculated according to Eq. (2):2 △δ=1/2△δH2+α△δN^2 in which δ is the difference in chemical shift (in ppm) and α is an empirical weighting factor of 0.14 for all amino acid backbone resonances. […]

LecA [1] = target: T5, LecA (Pseudomonas aeruginosa, UniProt Q05097); experiment: Competitive 19F T2-filtered NMR with reporter 5; type: binding; details: 0.1 mM 5, 10 mM CaCl2, 3 mM competitor
T5 construct: made in house
T5 sequence (Q05097 whole entry): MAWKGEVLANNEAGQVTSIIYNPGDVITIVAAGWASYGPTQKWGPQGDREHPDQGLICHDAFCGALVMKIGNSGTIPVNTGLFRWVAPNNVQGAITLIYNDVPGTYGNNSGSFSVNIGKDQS
Protocol: The analogs of 1 (5) and 58 (61) were used as fluorinated spy molecules in ^19F T2-filtered NMR experiments. Two samples containing 0.1 mM 5 or 61 alone or a 10 µM protein in TBS/EDTA buffer followed by addition of 10 mM CaCl2 and the carbohydrates: 1 mM MeGal (LecA), 1 mM MeFuc (LecB/BambL) and 30 mM D-mannose (DC-SIGN/Langerin). Similarly, 0.1 mM 5 was used to prioritize hydroxamate derivatives, where 3 mM analogs of 1 were added to the samples instead of the carbohydrates. The ^19F and ^19F T2-filtered spectra were recorded with 64 scans, a spectral width of 5 ppm, a transmitter offset at −155.5 ppm (5) and −155.5 ppm (61), the acquisition time of 0.8 s, 2 s relaxation time applying a T2-filter of 384 ms. All spectra were analyzed as described above.

15N LecA = target: T6, 15N LecA (Pseudomonas aeruginosa, UniProt Q05097); experiment: 1H-15N TROSY NMR with 15N LecA; type: binding
T6 construct: made in house
T6 sequence (Q05097 whole entry): as above
Protocol: as §1, §2

LecA [2] = target: T5, LecA; experiment: SPR with immobilized LecA; type: binding; details: compounds at 0.2 and 1 mM
Protocol: All experiments were performed on a BIACORE X100 instrument (GE Healthcare) at 25 °C in phosphate-buffered saline (10 mM phosphate buffer pH 7.4, 2.7 mM KCl, 137 mM NaCl, 0.05% Tween-20, 100 µM CaCl2, 5% DMSO). LecA was immobilized onto a CM7 chip (BIACORE) following standard amine coupling procedures. The CM7 chip was activated by three injections of a NHS/EDC mixture with a contact time of 540 s at a flow rate of 10 µL min^−1 until the response exceeded 800 RU, followed by multiple injections of LecA dissolved in 10 mM sodium acetate pH 4.5 (100 µg/mL) onto channel 2 (contact time of 540 s at a flow rate of 10 µL min^−1). A minimum of 10,000 RU of LecA was captured onto the chip. Initial binding screens were performed with the injections of 0.2 and 1 mM of each hydroxamate (association 30 s, dissociation 60 s, 30 µL min^−1 flow rate), to identify the initial binders eliciting dose-response behaviors. Injection of the positive control (0.1 mM 4-Nitrophenyl-β-D-galactoside) was included after every forth injection cycle to monitor the activity of immobilized LecA throughout the binding screen experiments. All data evaluation was performed using BIACORE X100 evaluation software (v.2.0).

LecA [3] = target: T5, LecA; details: carbohydrate ligand; cited from earlier work
LecA [4] = target: T5, LecA; experiment: Competitive fluorescence polarization (FP) assay; type: binding; details: read-out: Inhibition in FP, compared to MeGal; measured at 4 mM (16 h)
Protocol: The FP assay was performed in a black 384-well plate (Greiner Bio-One, Germany, 781900) with the final volume of 20 µL as described previously. Briefly, 10 µL of a sample solution series (10–0.078 mM) in TBS buffer containing 10 mM Ca^2+ (TBS/Ca^2+-buffer) and 20% DMSO were added in technical triplicates to 10 µL LecA (40 µM) preincubated with a galactose-based Cy5 conjugate[68] (20 nM) in TBS/Ca^2+-buffer. […] The plate was sealed (EASYseal, Greiner Bio-One, 676,001), centrifuged (1 min, 1500 rpm, 25 °C) and incubated in a humidity chamber for 16 h. The fluorescence was measured with an excitation 590 nm and emission 675 nm filter[68] on a PheraStar FS plate reader (BMG Labtech GmbH, Germany). The blank signal of TBS/Ca^2+-buffer containing 10% DMSO was subtracted and the compounds were analyzed with the MARS Data Analysis Software (BMG Labtech GmbH Germany) using the four-parameter variable slope model. The top and bottom plateaus were defined according to the positive controls. The graphs were visualized using Graphpad Prism 5. The percentage (%) of inhibition was calculated at the highest concentration compared with 10 mM MeGal set to 100%.

LecA [5] = target: T5, LecA; details: positive control in FP assay, unit inferred; cited from earlier work

OC[C@H]1OC(O)[C@@H](O)[C@@H](O)[C@@H]1O (stereo partly drawn) [D-mannose]
Kd (Langerin and DC-SIGN): 3500 to 6100 µM | Kd (DC-SIGN): 3000 µM

O=C(O)C(C(=O)O)C1CCC(F)(F)C1 (stereo not drawn) [compound 58]
Kd (DC-SIGN CRD (CD209); 15N DC-SIGN CRD, titration, one-site binding model, 30 mM CaCl2): 1200 ± 500 µM | LE (DC-SIGN CRD (CD209); ligand efficiency calculated from Kd for DC-SIGN CRD, 298 K): 0.28 kcal mol^−1 HA^−1 | inhibition of FITC-dextran binding / binding to DC-SIGN^+ cells (DC-SIGN^+ Raji cells): inhibited FITC-dextran binding to DC-SIGN similarly to D-mannose; also recorded: specifically bound to DC-SIGN^+ cells | cytotoxicity (Raji cells): negligible cytotoxicity; also recorded: low cytotoxicity | binding to 5FW LecA (perturbation of W42) in PrOF NMR (5FW LecA (PA-IL); 2 mM compound): perturbed W42 | W2 [ppm] (5FW LecA (PA-IL); 19F resonance of 0.15 mM 5FW LecA with 2 mM compound, DMSO 121.43): 121.47 ppm | W33 [ppm] (5FW LecA (PA-IL); 19F resonance of 0.15 mM 5FW LecA with 2 mM compound, DMSO 121.67): 121.77 ppm | W84 [ppm] (5FW LecA (PA-IL); 19F resonance of 0.15 mM 5FW LecA with 2 mM compound, DMSO 123.50): 123.53 ppm | Kd (LecB (PA-IIL)): 1200 ± 400 µM | LE (LecB (PA-IIL); ligand efficiency calculated from Kd for LecB, 310 K): 0.29 kcal mol^−1 HA^−1

O=C(CCCCCCC(=O)Nc1ccccc1)NO [compound 47, reference compound]
competition of reporter 5 from LecA (recovery of 19F peak) (LecA [1]): did not displace | binding to 15N LecA in TROSY NMR (15N LecA; 4 mM analogs of 1, 1 mM marketed hydroxamates): not tolerated; also recorded: none of the marketed metalloproteinase inhibitors (47, 49, 50) bound; also recorded: no binding | Efficiency in SPR (normalized binding response) (LecA [2]): 3.8%

OC[C@H]1O[C@H](O)[C@H](O)[C@@H](O)[C@H]1O [α-D-galactose]
Kd (LecA [3]): 50 µM

NC(C(=O)NO)c1ccccc1 (stereo not drawn) [compound 1]
competition of reporter 5 from LecA (recovery of 19F peak) (LecA [1]): did not displace | total % of CSPs normalized to MeGal in 15N LecA (15N LecA; 2 mM compound, 1 mM MeGal): 40% | Kd (5FW LecA (PA-IL)): 7200 ± 1400 µM | LE (5FW LecA (PA-IL); ligand efficiency calculated from Kd for LecA, 310 K): 0.25 kcal mol^−1 HA^−1 | binding to 15N LecB in TROSY NMR (LecB (PA-IIL); 2 mM compound): did not bind | Efficiency in SPR (normalized binding response) (LecA [2]): 11.6% | inhibition at 4000 µM (LecA [4]): 6%

CC(=O)N[C@H]1C(O)O[C@H](CO)[C@H](O)[C@@H]1O (stereo partly drawn) [GalNAc]
IC50 (LecA [5]): 1230 ± 200 µM
